From PMC9516332 (Frontiers in Oncology, 2022)
pIC50: −log10 of the molar value. Where two headings read alike, the source gives them in different places.

Tests used:
134 cancer cell lines = test: Cell viability assay (ATPlite, 72 hours), IC50 on cancer cell line panel
AP-1060 (ETV6-NTRK3) = test: Cell viability assay; conditions: read-out: IC50 in cell proliferation assay

SMILES: CCc1cc2c(cc1N1CCC(N3CCOCC3)CC1)C(C)(C)c1[nH]c3cc(C#N)ccc3c1C2=O [alectinib]
- pIC50 (134 cancer cell lines; HEC-6, read-out: IC50 in cell proliferation assay): < 5.00
- pIC50 (134 cancer cell lines; Homo sapiens, 769-P, read-out: IC50 in cell proliferation assay): 5.04
- pIC50 (134 cancer cell lines; Homo sapiens, 786-0, read-out: IC50 in cell proliferation assay): < 5.00
- pIC50 (134 cancer cell lines; Homo sapiens, A 172, read-out: IC50 in cell proliferation assay): < 5.00
- pIC50 (134 cancer cell lines; Homo sapiens, A204, read-out: IC50 in cell proliferation assay): < 5.00
- pIC50 (134 cancer cell lines; Homo sapiens, A498, read-out: IC50 in cell proliferation assay): < 5.00
- pIC50 (134 cancer cell lines; Homo sapiens, A549, read-out: IC50 in cell proliferation assay): < 5.00
- pIC50 (134 cancer cell lines; Homo sapiens, A704, read-out: IC50 in cell proliferation assay): < 5.00
- pIC50 (134 cancer cell lines; Homo sapiens, A-375, read-out: IC50 in cell proliferation assay): < 5.00
- pIC50 (134 cancer cell lines; Homo sapiens, A-427, read-out: IC50 in cell proliferation assay): < 5.00
- pIC50 (134 cancer cell lines; Homo sapiens, ACHN, read-out: IC50 in cell proliferation assay): 5.45
- pIC50 (134 cancer cell lines; Homo sapiens, AN3-CA, read-out: IC50 in cell proliferation assay): < 5.00
- pIC50 (134 cancer cell lines; Homo sapiens, ASPC1, read-out: IC50 in cell proliferation assay): < 5.00
- pIC50 (134 cancer cell lines; Homo sapiens, AU565, read-out: IC50 in cell proliferation assay): < 5.00
- pIC50 (134 cancer cell lines; Homo sapiens, BT-20, read-out: IC50 in cell proliferation assay): < 5.00
- pIC50 (134 cancer cell lines; Homo sapiens, BT-474, read-out: IC50 in cell proliferation assay): < 5.00
- pIC50 (134 cancer cell lines; Homo sapiens, BT-549, read-out: IC50 in cell proliferation assay): 5.57
- pIC50 (134 cancer cell lines; Homo sapiens, BXPC-3, read-out: IC50 in cell proliferation assay): < 5.00
- pIC50 (134 cancer cell lines; Homo sapiens, C-33-A, read-out: IC50 in cell proliferation assay): 5.70
- pIC50 (134 cancer cell lines; Homo sapiens, CAL-27, read-out: IC50 in cell proliferation assay): 5.93
- pIC50 (134 cancer cell lines; Homo sapiens, CCF-STTG1, read-out: IC50 in cell proliferation assay): 5.52
- pIC50 (134 cancer cell lines; Homo sapiens, CCRF-CEM, read-out: IC50 in cell proliferation assay): < 5.00
- pIC50 (134 cancer cell lines; Homo sapiens, COLO 205, read-out: IC50 in cell proliferation assay): < 5.00
- pIC50 (134 cancer cell lines; Homo sapiens, COLO-829, read-out: IC50 in cell proliferation assay): < 5.00
- pIC50 (134 cancer cell lines; Homo sapiens, DLD-1, read-out: IC50 in cell proliferation assay): < 5.00
- pIC50 (134 cancer cell lines; Homo sapiens, DU-145, read-out: IC50 in cell proliferation assay): < 5.00
- pIC50 (134 cancer cell lines; Homo sapiens, DU-4475, read-out: IC50 in cell proliferation assay): < 5.00
- pIC50 (134 cancer cell lines; Homo sapiens, Daoy, read-out: IC50 in cell proliferation assay): 5.46
- pIC50 (134 cancer cell lines; Homo sapiens, DoTc2-4510, read-out: IC50 in cell proliferation assay): 6.32
- pIC50 (134 cancer cell lines; Homo sapiens, EOL1, read-out: IC50 in cell proliferation assay): 6.71
- pIC50 (134 cancer cell lines; Homo sapiens, FaDu, read-out: IC50 in cell proliferation assay): < 5.00
- pIC50 (134 cancer cell lines; Homo sapiens, G-361, read-out: IC50 in cell proliferation assay): < 5.00
- pIC50 (134 cancer cell lines; Homo sapiens, HCC827, read-out: IC50 in cell proliferation assay): 5.80
- pIC50 (134 cancer cell lines; Homo sapiens, HCC4006, read-out: IC50 in cell proliferation assay): 5.88
- pIC50 (134 cancer cell lines; Homo sapiens, HCT-15, read-out: IC50 in cell proliferation assay): < 5.00
- pIC50 (134 cancer cell lines; Homo sapiens, HCT-116, read-out: IC50 in cell proliferation assay): < 5.00
- pIC50 (134 cancer cell lines; Homo sapiens, HEC-1, read-out: IC50 in cell proliferation assay): 5.88
- pIC50 (134 cancer cell lines; Homo sapiens, HEC-1B, read-out: IC50 in cell proliferation assay): < 5.00
- pIC50 (134 cancer cell lines; Homo sapiens, HL-60, read-out: IC50 in cell proliferation assay): < 5.00
- pIC50 (134 cancer cell lines; Homo sapiens, HT, read-out: IC50 in cell proliferation assay): < 5.00
- pIC50 (134 cancer cell lines; Homo sapiens, HT-1080, read-out: IC50 in cell proliferation assay): 5.12
- pIC50 (134 cancer cell lines; Homo sapiens, Hs746T, read-out: IC50 in cell proliferation assay): < 5.00
- pIC50 (134 cancer cell lines; Homo sapiens, Hs-578T, read-out: IC50 in cell proliferation assay): 5.31
- pIC50 (134 cancer cell lines; Homo sapiens, HuTu80, read-out: IC50 in cell proliferation assay): < 5.00
- pIC50 (134 cancer cell lines; Homo sapiens, J82, read-out: IC50 in cell proliferation assay): < 5.00
- pIC50 (134 cancer cell lines; Homo sapiens, Jurkat E6.1, read-out: IC50 in cell proliferation assay): < 5.00
- pIC50 (134 cancer cell lines; Homo sapiens, K562, read-out: IC50 in cell proliferation assay): < 5.00
- pIC50 (134 cancer cell lines; Homo sapiens, KATO III, read-out: IC50 in cell proliferation assay): < 5.00
- pIC50 (134 cancer cell lines; Homo sapiens, KG-1, read-out: IC50 in cell proliferation assay): 6.35
- pIC50 (134 cancer cell lines; Homo sapiens, KLE, read-out: IC50 in cell proliferation assay): < 5.00
- pIC50 (134 cancer cell lines; Homo sapiens, KMS-11, read-out: IC50 in cell proliferation assay): < 5.00
- pIC50 (134 cancer cell lines; Homo sapiens, KU812, read-out: IC50 in cell proliferation assay): < 5.00
- pIC50 (134 cancer cell lines; Homo sapiens, Kasumi 1, read-out: IC50 in cell proliferation assay): 5.82
- pIC50 (134 cancer cell lines; Homo sapiens, LC-2-ad, read-out: IC50 in cell proliferation assay): 5.95
- pIC50 (134 cancer cell lines; Homo sapiens, LNCaP-Clone-FGC, read-out: IC50 in cell proliferation assay): < 5.00
- pIC50 (134 cancer cell lines; Homo sapiens, LS174T, read-out: IC50 in cell proliferation assay): < 5.00
- pIC50 (134 cancer cell lines; Homo sapiens, LS-411N, read-out: IC50 in cell proliferation assay): < 5.00
- pIC50 (134 cancer cell lines; Homo sapiens, LoVo, read-out: IC50 in cell proliferation assay): < 5.00
- pIC50 (134 cancer cell lines; Homo sapiens, MCF7, read-out: IC50 in cell proliferation assay): < 5.00
- pIC50 (134 cancer cell lines; Homo sapiens, MDA-MB-231, read-out: IC50 in cell proliferation assay): < 5.00
- pIC50 (134 cancer cell lines; Homo sapiens, MDA-MB-453, read-out: IC50 in cell proliferation assay): < 5.00
- pIC50 (134 cancer cell lines; Homo sapiens, MDA-MB-468, read-out: IC50 in cell proliferation assay): < 5.00
- pIC50 (134 cancer cell lines; Homo sapiens, MG-63, read-out: IC50 in cell proliferation assay): < 5.00
- pIC50 (134 cancer cell lines; Homo sapiens, MIA PaCa-2, read-out: IC50 in cell proliferation assay): < 5.00
- pIC50 (134 cancer cell lines; Homo sapiens, MKN-45, read-out: IC50 in cell proliferation assay): < 5.00
- pIC50 (134 cancer cell lines; Homo sapiens, MOLM-13, read-out: IC50 in cell proliferation assay): 6.00
- pIC50 (134 cancer cell lines; Homo sapiens, MOLT-4, read-out: IC50 in cell proliferation assay): < 5.00
- pIC50 (134 cancer cell lines; Homo sapiens, MV4-11, read-out: IC50 in cell proliferation assay): 5.97
- pIC50 (134 cancer cell lines; Homo sapiens, MeWo, read-out: IC50 in cell proliferation assay): < 5.00
- pIC50 (134 cancer cell lines; Homo sapiens, NCCIT, read-out: IC50 in cell proliferation assay): < 5.50
- pIC50 (134 cancer cell lines; Homo sapiens, NCI-H82, read-out: IC50 in cell proliferation assay): < 5.00
- pIC50 (134 cancer cell lines; Homo sapiens, NCI-H460, read-out: IC50 in cell proliferation assay): < 5.00
- pIC50 (134 cancer cell lines; Homo sapiens, NCI-H661, read-out: IC50 in cell proliferation assay): < 5.00
- pIC50 (134 cancer cell lines; Homo sapiens, NCI-H716, read-out: IC50 in cell proliferation assay): 5.60
- pIC50 (134 cancer cell lines; Homo sapiens, NCI-H1650, read-out: IC50 in cell proliferation assay): 5.78
- pIC50 (134 cancer cell lines; Homo sapiens, NCI-H1975, read-out: IC50 in cell proliferation assay): 6.13
- pIC50 (134 cancer cell lines; Homo sapiens, NCI-H2228, read-out: IC50 in cell proliferation assay): 7.41
- pIC50 (134 cancer cell lines; Homo sapiens, OVCAR-3, read-out: IC50 in cell proliferation assay): < 5.00
- pIC50 (134 cancer cell lines; Homo sapiens, PFSK-1, read-out: IC50 in cell proliferation assay): 5.46
- pIC50 (134 cancer cell lines; Homo sapiens, RL95-2, read-out: IC50 in cell proliferation assay): 5.88
- pIC50 (134 cancer cell lines; Homo sapiens, RPMI-7951, read-out: IC50 in cell proliferation assay): < 5.00
- pIC50 (134 cancer cell lines; Homo sapiens, RS4-11, read-out: IC50 in cell proliferation assay): < 5.00
- pIC50 (134 cancer cell lines; Homo sapiens, Rec1, read-out: IC50 in cell proliferation assay): 5.91
- pIC50 (134 cancer cell lines; Homo sapiens, SHP77, read-out: IC50 in cell proliferation assay): < 5.00
- pIC50 (134 cancer cell lines; Homo sapiens, SK-BR-3, read-out: IC50 in cell proliferation assay): < 5.00
- pIC50 (134 cancer cell lines; Homo sapiens, SK-N-AS, read-out: IC50 in cell proliferation assay): 5.11
- pIC50 (134 cancer cell lines; Homo sapiens, SK-N-FI, read-out: IC50 in cell proliferation assay): 5.13
- pIC50 (134 cancer cell lines; Homo sapiens, SK-N-MC, read-out: IC50 in cell proliferation assay): < 5.00
- pIC50 (134 cancer cell lines; Homo sapiens, SK-N-SH, read-out: IC50 in cell proliferation assay): 5.61
- pIC50 (134 cancer cell lines; Homo sapiens, SNU-5, read-out: IC50 in cell proliferation assay): < 5.00
- pIC50 (134 cancer cell lines; Homo sapiens, SNU-16, read-out: IC50 in cell proliferation assay): < 5.00
- pIC50 (134 cancer cell lines; Homo sapiens, SNU-C2B, read-out: IC50 in cell proliferation assay): < 5.00
- pIC50 (134 cancer cell lines; Homo sapiens, SU-DHL-1, read-out: IC50 in cell proliferation assay): 6.36
- pIC50 (134 cancer cell lines; Homo sapiens, SU-DHL-6, read-out: IC50 in cell proliferation assay): < 5.00
- pIC50 (134 cancer cell lines; Homo sapiens, SUP-T1, read-out: IC50 in cell proliferation assay): < 5.00
- pIC50 (134 cancer cell lines; Homo sapiens, SW48, read-out: IC50 in cell proliferation assay): < 5.00
- pIC50 (134 cancer cell lines; Homo sapiens, SW480, read-out: IC50 in cell proliferation assay): < 5.00
- pIC50 (134 cancer cell lines; Homo sapiens, SW626, read-out: IC50 in cell proliferation assay): < 5.00
- pIC50 (134 cancer cell lines; Homo sapiens, SW780, read-out: IC50 in cell proliferation assay): 5.78
- pIC50 (134 cancer cell lines; Homo sapiens, SW837, read-out: IC50 in cell proliferation assay): < 5.00
- pIC50 (134 cancer cell lines; Homo sapiens, SW872, read-out: IC50 in cell proliferation assay): < 5.00
- pIC50 (134 cancer cell lines; Homo sapiens, SW900, read-out: IC50 in cell proliferation assay): < 5.00
- pIC50 (134 cancer cell lines; Homo sapiens, SW948, read-out: IC50 in cell proliferation assay): < 5.00
- pIC50 (134 cancer cell lines; Homo sapiens, SW982, read-out: IC50 in cell proliferation assay): < 5.00
- pIC50 (134 cancer cell lines; Homo sapiens, SW-620, read-out: IC50 in cell proliferation assay): < 5.00
- pIC50 (134 cancer cell lines; Homo sapiens, T98G, read-out: IC50 in cell proliferation assay): < 5.00
- pIC50 (134 cancer cell lines; Homo sapiens, TCC-SUP, read-out: IC50 in cell proliferation assay): 5.43
- pIC50 (134 cancer cell lines; Homo sapiens, THP-1, read-out: IC50 in cell proliferation assay): < 5.00
- pIC50 (134 cancer cell lines; Homo sapiens, U2OS, read-out: IC50 in cell proliferation assay): 5.42
- pIC50 (134 cancer cell lines; Homo sapiens, U-87 MG, read-out: IC50 in cell proliferation assay): 5.51
- pIC50 (134 cancer cell lines; Homo sapiens, U-118-MG, read-out: IC50 in cell proliferation assay): 5.48
- pIC50 (134 cancer cell lines; Homo sapiens, UMUC3, read-out: IC50 in cell proliferation assay): 5.48
- pIC50 (134 cancer cell lines; Hs766T, read-out: IC50 in cell proliferation assay): < 5.00
- pIC50 (134 cancer cell lines; L-82, read-out: IC50 in cell proliferation assay): 7.43
- pIC50 (134 cancer cell lines; Rh30, read-out: IC50 in cell proliferation assay): < 5.00
- pIC50 (AP-1060 (ETV6-NTRK3)): 5.95
